Results on two molecules are retold here after ChEMBL document CHEMBL1201861, “Genomics of Drug Sensitity in Cancer screening data, Wellcome Trust Sanger Institute”.

Common to all, as to format: functional, cell-based
The subject of one test is COR-L279. The test can be described thus: SANGER: Inhibition of human COR-L279 cell growth in a cell viability assay.
The test system of a further test is DMS-153. The test can be described thus: cells. Particulars: Homo sapiens.
The next test deals with IM-9. Description: SANGER: Inhibition of human IM-9 cell growth in a cell viability assay.
A further test relates to IMR-5. The test can be described thus: cells. Particulars: Homo sapiens.
A further test relates to IST-SL2. The test can be described thus: cells. Conditions: Homo sapiens.
The subject of another test is K052. The test can be described thus: cells. Conditions: Homo sapiens.
A further test deals with LOUCY. The test can be described thus: cells. Conditions: Homo sapiens.
Another test deals with NALM-6. Description: cells. Conditions: Homo sapiens.
Another test has as its system NB1. Description: cells. Conditions: Homo sapiens.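 Also: reduction of NB1 cell proliferation, read out with a viability assay.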
The subject of the next test is NCI-H1436. Description: cells. Particulars: Homo sapiens.
The subject of the next test is NCI-H2081. The test can be described thus: cells. Conditions: Homo sapiens.
The next test deals with NCI-H748. Description: cells. Conditions: Homo sapiens.
A further test has as its system SIMA. The test can be described thus: cells. Particulars: Homo sapiens.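 Also: growth inhibition of SIMA cells, measured with a cell viability readout.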
The test system of another test is ST486. The test can be described thus: SANGER: Inhibition of human ST486 cell growth in a cell viability assay.
A further test relates to BOKU. The test can be described thus: cells. Conditions: Homo sapiens.
Another test has as its system TGW. The test can be described thus: cells. Particulars: Homo sapiens.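 Also: growth inhibition of human TGW cells, read out with a cell viability assay.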
In a further test the test system is WSU-NHL. Description: cells. Particulars: Homo sapiens.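 Also: growth inhibition of human WSU-NHL cells, read out with a cell viability assay.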
Another test has as its system CMK. The test can be described thus: cells. Conditions: Homo sapiens.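 Also: growth inhibition of CMK cells, read out as cell viability.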

Description for BOKU: SANGER: Inhibition of human BOKU cell growth in a cell viability assay.
Description for CMK: SANGER: Inhibition of human CMK cell growth in a cell viability assay.
Description for DMS-153: SANGER: Inhibition of human DMS-153 cell growth in a cell viability assay.
Description for IMR-5: SANGER: Inhibition of human IMR-5 cell growth in a cell viability assay.
Description for IST-SL2: SANGER: Inhibition of human IST-SL2 cell growth in a cell viability assay.
Description for K052: SANGER: Inhibition of human K052 cell growth in a cell viability assay.
Description for LOUCY: SANGER: Inhibition of human LOUCY cell growth in a cell viability assay.
Description for NALM-6: SANGER: Inhibition of human NALM-6 cell growth in a cell viability assay.
Description for NB1: SANGER: Inhibition of human NB1 cell growth in a cell viability assay.
Description for NCI-H1436: SANGER: Inhibition of human NCI-H1436 cell growth in a cell viability assay.
Description for NCI-H2081: SANGER: Inhibition of human NCI-H2081 cell growth in a cell viability assay.
Description for NCI-H748: SANGER: Inhibition of human NCI-H748 cell growth in a cell viability assay.
Description for SIMA: SANGER: Inhibition of human SIMA cell growth in a cell viability assay.
Description for TGW: SANGER: Inhibition of human TGW cell growth in a cell viability assay.
Description for WSU-NHL: SANGER: Inhibition of human WSU-NHL cell growth in a cell viability assay.

Usually IC50 stands for the concentration needed to halve the response being measured. The low end stands for greater potency in that assay, the high end for weaker potency in that assay. `Cc1n[nH]c2ccc(-c3cncc(OC[C@@H](N)Cc4c[nH]c5ccccc45)c3)cc12` [A-443654]: the IC50 in the test on COR-L279 was 570 nM; in the test with DMS-153, 669 nM; in the test with IM-9, over 1020 nM; with IMR-5, 600 nM; in the test with IST-SL2 it was 194 nM; in the test on K052, over 1020 nM. The IC50 is 158 nM in the test with LOUCY; 128 nM in the test on NALM-6; 117 nM with NB1; 477 nM in the test on NCI-H1436; over 1020 nM in the test on NCI-H2081; 508 nM in the test on NCI-H748. Besides, the IC50 with SIMA is over 1020 nM; in the test on ST486, 204 nM; with BOKU, over 1020 nM; in the test with TGW it was 569 nM; in the test with WSU-NHL, over 1020 nM; with CMK, 275 nM.
For the molecule `Cc1nc(Nc2ncc(C(=O)Nc3c(C)cccc3Cl)s2)cc(N2CCN(CCO)CC2)n1` [DASATINIB], the concentration for half-maximal inhibition (IC50) in the test with COR-L279 is over 1280 nM; with DMS-153, over 1280 nM; in the test with IM-9 it was over 1280 nM; in the test on IMR-5, over 1280 nM; in the test with IST-SL2, 503 nM; in the test with K052, over 1280 nM. In addition, the concentration for half-maximal inhibition (IC50) with LOUCY is over 1280 nM; with NALM-6, 193 nM; with NB1 it was over 1280 nM; with NCI-H1436, over 1280 nM; in the test with NCI-H2081 it was over 1280 nM; in the test with NCI-H748 it was over 1280 nM. Moreover, the 50% inhibitory concentration (IC50) in the test on SIMA is over 1280 nM; in the test with ST486, over 1280 nM; in the test with BOKU, 491 nM; in the test on TGW it was over 1280 nM; with WSU-NHL, over 1280 nM; in the test on CMK, over 1280 nM.
